# In paper PMC8159961, “Exploring protein hotspots by optimized fragment pharmacophores” (Nature Communications, 2021):
# Values joined by “and” are separate entries in the source; they are usually repeats but may differ in a detail not shown here. Equal entries are not always repeated. Where two headings read alike, the source gives them in different places.
# Tests used:
# human 5-HT1A receptor = biological target: T1, human 5-HT1A receptor (Homo sapiens, UniProt P08908); experiment: GPCR radioligand binding assay, [3H]-8-OH-DPAT displacement, HEK293 membranes
# T1 construct: expressed in transfected cells
# T1 sequence (P08908 1-422): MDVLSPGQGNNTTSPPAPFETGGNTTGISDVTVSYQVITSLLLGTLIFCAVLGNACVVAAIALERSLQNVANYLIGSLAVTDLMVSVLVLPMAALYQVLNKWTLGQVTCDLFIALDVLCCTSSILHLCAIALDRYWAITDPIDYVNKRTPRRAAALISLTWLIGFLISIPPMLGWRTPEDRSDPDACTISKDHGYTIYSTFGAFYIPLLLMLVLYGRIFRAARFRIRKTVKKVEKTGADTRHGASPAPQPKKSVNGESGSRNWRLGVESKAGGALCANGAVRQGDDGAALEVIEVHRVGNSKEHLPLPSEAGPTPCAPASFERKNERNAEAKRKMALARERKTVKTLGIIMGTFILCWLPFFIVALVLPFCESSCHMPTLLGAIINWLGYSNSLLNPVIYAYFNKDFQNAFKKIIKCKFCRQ
# human 5-HT6 receptor = biological target: T2, human 5-HT6 receptor (Homo sapiens, UniProt P50406); experiment: GPCR radioligand binding assay, [3H]-LSD displacement, HEK293 membranes
# T2 construct: expressed in transfected cells
# human 5-HT7b receptor = biological target: T3, human 5-HT7b receptor (Homo sapiens, UniProt P34969); experiment: GPCR radioligand binding assay, [3H]-5-CT displacement, HEK293 membranes
# T3 construct: expressed in transfected cells
# bovine factor Xa = biological target: T4, bovine factor Xa (Bos taurus, UniProt P00743); experiment: Protease inhibitory assay, chromogenic substrate S-2222; type: biochemical; conditions: for vinit: replicate values
# T4 construct: bovine factor Xa, Chromogenix, 2 nkat/mL; purchased Chromogenix
# human thrombin = biological target: T5, human thrombin (Homo sapiens, UniProt P00734); experiment: Protease inhibitory assay, chromogenic substrate S-2238; type: biochemical; conditions: for vinit: replicate values
# T5 construct: human thrombin; purchased Sigma-Aldrich
# [1] = 10 µM, read-out: 5-HT1A % Inhibition by plate position
# [2] = 5-HT1A, average of exp_1 and exp_2, read-out: %inh 5-HT1A average
# [3] = 5-HT1A, average, values below 0 and above 100% were set as 0 and 100, read-out: %inh 5-HT1A corrected*
# [4] = 5-HT1A, replicate exp_1, read-out: %inh 5-HT1A exp_1
# [5] = 5-HT1A, replicate exp_2, read-out: %inh 5-HT1A exp_2
# [6] = 10 µM, read-out: 5-HT6 % Inhibition by plate position
# [7] = 5-HT6, average of exp_1 and exp_2, read-out: %inh 5-HT6 average
# [8] = 5-HT6, average, values below 0 and above 100% were set as 0 and 100, read-out: %inh 5-HT6 corrected*
# [9] = 5-HT6, replicate exp_1, read-out: %inh 5-HT6 exp_1
# [10] = 5-HT6, replicate exp_2, read-out: %inh 5-HT6 exp_2
# [11] = 10 µM, read-out: 5-HT7 % Inhibition by plate position
# [12] = 5-HT7, average of exp_1 and exp_2, read-out: %inh 5-HT7 average
# [13] = 5-HT7, average, values below 0 and above 100% were set as 0 and 100, read-out: %inh 5-HT7 corrected*
# [14] = 5-HT7, replicate exp_1, read-out: %inh 5-HT7 exp_1
# [15] = 5-HT7, replicate exp_2, read-out: %inh 5-HT7 exp_2
# [16] = 5-HT1A, average of exp_1 and exp_2
# [17] = 5-HT1A, average, values below 0 and above 100% were set as 0 and 100
# [18] = 5-HT6, average of exp_1 and exp_2
# [19] = 5-HT6, average, values below 0 and above 100% were set as 0 and 100
# [20] = 5-HT7, average of exp_1 and exp_2
# [21] = Thrombin primary screening, substrate 40 µM, cmpd conc 500 µM
# [22] = FactorXa Ki determination, substrate 100 µM, cmpd conc 200 µM
# [23] = FactorXa Ki determination, substrate 200 µM, cmpd conc 200 µM
# [24] = FactorXa primary screening, substrate 100 µM, cmpd conc 200 µM
# [25] = Thrombin Ki determination, substrate 20 µM, cmpd conc 200 µM
# [26] = Thrombin Ki determination, substrate 40 µM, cmpd conc 200 µM
# T2 sequence (P50406 whole entry): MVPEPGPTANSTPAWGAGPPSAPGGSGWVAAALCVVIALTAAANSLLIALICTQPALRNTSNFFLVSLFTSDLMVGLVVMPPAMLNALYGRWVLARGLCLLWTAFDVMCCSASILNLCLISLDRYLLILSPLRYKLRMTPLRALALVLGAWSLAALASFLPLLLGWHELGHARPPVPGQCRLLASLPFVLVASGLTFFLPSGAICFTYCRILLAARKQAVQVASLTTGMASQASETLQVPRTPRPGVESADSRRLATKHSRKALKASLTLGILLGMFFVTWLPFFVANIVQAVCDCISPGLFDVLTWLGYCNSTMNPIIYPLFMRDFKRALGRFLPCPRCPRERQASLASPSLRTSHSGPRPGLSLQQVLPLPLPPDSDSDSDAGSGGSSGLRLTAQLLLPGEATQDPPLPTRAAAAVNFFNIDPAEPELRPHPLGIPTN
# T4 sequence (P00743 234-492 limits assumed): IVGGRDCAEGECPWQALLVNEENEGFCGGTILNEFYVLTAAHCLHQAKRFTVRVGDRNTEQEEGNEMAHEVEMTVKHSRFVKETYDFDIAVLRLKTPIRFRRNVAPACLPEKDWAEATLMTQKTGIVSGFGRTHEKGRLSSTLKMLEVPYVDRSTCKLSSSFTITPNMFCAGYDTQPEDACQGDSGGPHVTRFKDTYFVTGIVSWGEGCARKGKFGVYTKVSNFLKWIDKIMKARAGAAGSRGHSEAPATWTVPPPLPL
# T4 sequence (P00743 41-180 partner limits assumed): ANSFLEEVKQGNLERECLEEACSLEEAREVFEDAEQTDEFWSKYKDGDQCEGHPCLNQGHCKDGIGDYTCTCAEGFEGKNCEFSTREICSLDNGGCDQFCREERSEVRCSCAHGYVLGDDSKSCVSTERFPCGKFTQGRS
# T3 sequence (P34969 1-432): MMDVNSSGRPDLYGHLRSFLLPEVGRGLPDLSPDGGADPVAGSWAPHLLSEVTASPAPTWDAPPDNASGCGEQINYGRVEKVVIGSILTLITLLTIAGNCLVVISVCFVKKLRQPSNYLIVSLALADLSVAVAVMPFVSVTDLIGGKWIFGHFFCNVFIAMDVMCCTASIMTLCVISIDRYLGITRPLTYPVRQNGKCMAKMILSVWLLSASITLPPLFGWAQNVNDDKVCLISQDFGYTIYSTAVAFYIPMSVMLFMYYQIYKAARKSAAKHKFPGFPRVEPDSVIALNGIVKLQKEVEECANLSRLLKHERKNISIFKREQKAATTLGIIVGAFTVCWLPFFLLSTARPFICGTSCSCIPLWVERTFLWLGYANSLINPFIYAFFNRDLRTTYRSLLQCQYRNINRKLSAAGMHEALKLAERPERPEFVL
compound,measurement,setting,value
O=C(c1ccccc1F)N1CCNCC1 [E12],inhibition at 10 µM,human 5-HT1A receptor; [1],15%
same,inhibition at 10 µM,human 5-HT1A receptor; [2],15%
same,inhibition at 10 µM,human 5-HT1A receptor; [3],15%
same,inhibition at 10 µM,human 5-HT1A receptor; [4],13%
same,inhibition at 10 µM,human 5-HT1A receptor; [5],17%
same,inhibition at 10 µM,human 5-HT6 receptor; [6],17%
same,inhibition at 10 µM,human 5-HT6 receptor; [7],17%
same,inhibition at 10 µM,human 5-HT6 receptor; [8],17%
same,inhibition at 10 µM,human 5-HT6 receptor; [9],12%
same,inhibition at 10 µM,human 5-HT6 receptor; [10],22%
same,inhibition at 10 µM,human 5-HT7b receptor; [11],0%
same,inhibition at 10 µM,human 5-HT7b receptor; [12],-6%
same,inhibition at 10 µM,human 5-HT7b receptor; [13],0%
same,inhibition at 10 µM,human 5-HT7b receptor; [14],-4.53%
same,inhibition at 10 µM,human 5-HT7b receptor; [15],-8%
same,Ki,bovine factor Xa,510 µM
O=C(O)c1cnc(-c2ccccc2)s1 [F3],inhibition at 10 µM,human 5-HT1A receptor; [1],2.52%
same,inhibition at 10 µM,human 5-HT1A receptor; [2],2.52%
same,inhibition at 10 µM,human 5-HT1A receptor; [3],2.52%
same,inhibition at 10 µM,human 5-HT1A receptor; [4],-2.47%
same,inhibition at 10 µM,human 5-HT1A receptor; [5],7.5%
same,inhibition at 10 µM,human 5-HT6 receptor; [6],41%
same,inhibition at 10 µM,human 5-HT6 receptor; [7],41%
same,inhibition at 10 µM,human 5-HT6 receptor; [8],41%
same,inhibition at 10 µM,human 5-HT6 receptor; [9],48%
same,inhibition at 10 µM,human 5-HT6 receptor; [10],34%
same,inhibition at 10 µM,human 5-HT7b receptor; [11],0%
same,inhibition at 10 µM,human 5-HT7b receptor; [12],-18%
same,inhibition at 10 µM,human 5-HT7b receptor; [13],0%
same,inhibition at 10 µM,human 5-HT7b receptor; [14],-6%
same,inhibition at 10 µM,human 5-HT7b receptor; [15],-31%
same,Ki,"human thrombin; plate layout, label = plate position, Cheng-Prusoff, Km 2.6 µM, read-out: Thrombin Ki",271 µM
O=C1CSC(Nc2ccc(F)cc2)=N1 [H10],%inh 5-HT1A average,human 5-HT1A receptor; [16],12%
same,%inh 5-HT1A corrected*,human 5-HT1A receptor; [17],12%
same,%inh 5-HT1A exp_1,"human 5-HT1A receptor; 5-HT1A, replicate exp_1",10%
same,%inh 5-HT1A exp_2,"human 5-HT1A receptor; 5-HT1A, replicate exp_2",15%
same,5-HT6 % Inhibition by plate position,human 5-HT6 receptor; 10 µM,36%
same,%inh 5-HT6 average,human 5-HT6 receptor; [18],36%
same,%inh 5-HT6 corrected*,human 5-HT6 receptor; [19],36%
same,%inh 5-HT6 exp_1,"human 5-HT6 receptor; 5-HT6, replicate exp_1",37%
same,%inh 5-HT6 exp_2,"human 5-HT6 receptor; 5-HT6, replicate exp_2",35%
same,5-HT7 % Inhibition by plate position,human 5-HT7b receptor; 10 µM,0%
same,%inh 5-HT7 average,human 5-HT7b receptor; [20],-3.55%
same,%inh 5-HT7 exp_1,"human 5-HT7b receptor; 5-HT7, replicate exp_1",3.25%
same,%inh 5-HT7 exp_2,"human 5-HT7b receptor; 5-HT7, replicate exp_2",-10%
Cc1ccc(CCNc2ccccc2)cn1 [H11],%inh 5-HT1A average,human 5-HT1A receptor; [16],5%
same,%inh 5-HT1A corrected*,human 5-HT1A receptor; [17],5%
same,%inh 5-HT1A exp_1,"human 5-HT1A receptor; 5-HT1A, replicate exp_1",11%
same,%inh 5-HT1A exp_2,"human 5-HT1A receptor; 5-HT1A, replicate exp_2",-0.501%
same,5-HT6 % Inhibition by plate position,human 5-HT6 receptor; 10 µM,0%
same,%inh 5-HT6 average,human 5-HT6 receptor; [18],-0.844%
same,%inh 5-HT6 corrected*,human 5-HT6 receptor; [19],0%
same,%inh 5-HT6 exp_1,"human 5-HT6 receptor; 5-HT6, replicate exp_1",7%
same,%inh 5-HT6 exp_2,"human 5-HT6 receptor; 5-HT6, replicate exp_2",-9%
same,5-HT7 % Inhibition by plate position,human 5-HT7b receptor; 10 µM,0%
same,%inh 5-HT7 average,human 5-HT7b receptor; [20],-0.222%
same,%inh 5-HT7 exp_1,"human 5-HT7b receptor; 5-HT7, replicate exp_1",-13%
same,%inh 5-HT7 exp_2,"human 5-HT7b receptor; 5-HT7, replicate exp_2",12%
O=C1NC(=O)/C(=C\c2cccs2)N1 [H12],inhibition at 10 µM,human 5-HT1A receptor; [1],3.44%
same,inhibition at 10 µM,human 5-HT1A receptor; [2],3.44%
same,inhibition at 10 µM,human 5-HT1A receptor; [3],3.44%
same,inhibition at 10 µM,human 5-HT1A receptor; [4],7%
same,inhibition at 10 µM,human 5-HT1A receptor; [5],-0.195%
same,inhibition at 10 µM,human 5-HT6 receptor; [6],32%
same,inhibition at 10 µM,human 5-HT6 receptor; [7],32%
same,inhibition at 10 µM,human 5-HT6 receptor; [8],32%
same,inhibition at 10 µM,human 5-HT6 receptor; [9],31%
same,inhibition at 10 µM,human 5-HT6 receptor; [10],32%
same,inhibition at 10 µM,human 5-HT7b receptor; [11],3.77%
same,inhibition at 10 µM,human 5-HT7b receptor; [12],3.77%
same,inhibition at 10 µM,human 5-HT7b receptor; [13],3.77%
same,inhibition at 10 µM,human 5-HT7b receptor; [14],6%
same,inhibition at 10 µM,human 5-HT7b receptor; [15],1.68%
same,Ki,bovine factor Xa,466 µM
Cc1cc2ccccc2nc1N [SX-A1],V0 / Vi,human thrombin; [21],0.95
same,vinit,human thrombin; [21],30.291 and 31.236
same,V0 / Vi,bovine factor Xa; [22],1.84
same,"vinit, avrg.",bovine factor Xa; [22],8.852
same,vinit,bovine factor Xa; [22],8.688 and 8.852 and 9.02
same,V0 / Vi,bovine factor Xa; [23],1.59
same,vinit,bovine factor Xa; [23],22.63 and 23.206 and 22.86
same,V0 / Vi,bovine factor Xa; [24],1.83
same,vinit,bovine factor Xa; [24],9.345 and 9.782
same,Ki,"bovine factor Xa; FactorXa, substrate 100 µM, cmpd conc 200 µM, one of two values averaged in Supplementary Data 1, read-out: Ki",148 µM
same,Ki,"bovine factor Xa; FactorXa, substrate 200 µM, cmpd conc 200 µM, one of two values averaged in Supplementary Data 1, read-out: Ki",152 µM
c1cnc2cccnc2c1 [SX-A2],V0 / Vi,human thrombin; [25],1.14
same,"vinit, avrg.",human thrombin; [25],23.193
same,vinit,human thrombin; [25],23.633 and 22.973 and 22.97
same,V0 / Vi,human thrombin; [26],1.07
same,"vinit, avrg.",human thrombin; [26],31.452
same,vinit,human thrombin; [26],33.054 and 31.27 and 30.03
same,V0 / Vi,human thrombin; [21],1.13
same,vinit,human thrombin; [21],26.327 and 25.6
same,Ki,"human thrombin; Thrombin, substrate 20 µM, cmpd conc 200 µM, one of two values averaged in Supplementary Data 1, read-out: Ki",160 µM
same,Ki,"human thrombin; Thrombin, substrate 40 µM, cmpd conc 200 µM, one of two values averaged in Supplementary Data 1, read-out: Ki",166 µM
same,V0 / Vi,bovine factor Xa; [24],1.03
same,vinit,bovine factor Xa; [24],17.164 and 16.836
